Measured values published in article PMC7822874, “Chemoprotective antimalarials identified through quantitative high-throughput screening of Plasmodium blood and liver stage parasites” (Scientific Reports, 2021).
Where “and” joins values, the source holds several entries; their conditions need not be identical. Identical values can stand only once. Like-named read-outs stand apart in the source and are kept apart here.

How the values were obtained:
[1] = test system: P. berghei-ANKA-GFP-LucCON liver stage parasites in HepG2-A16-CD81EGFP cells; experiment: P. berghei liver stage Pb-Luc assay, Method 1 (UCSD, 1536-well); format: cell-based, Plasmodium berghei; conditions: for Average P. berghei 3 µM response( %) / Average P. berghei 1 µM response (%): averaged response (percent); for Average P. berghei 1 µM response (%): the header list (r8) defines it as the 1 µM dose; for PbLuc 1uM growth rep1 / PbLuc 1uM growth rep2 / PbLuc 3uM growth rep1 / PbLuc 3uM growth rep2 / activity at 1 µM / activity at 3 µM: average of 2 wells on a 1536 well plate; for activity at 1 µM / activity at 3 µM: 48 h; for Max Resp (signal direction of the dose response): Decrease = decreasing P. berghei viability with dose, Increase = increasing signal, Inactive = no dose response
HepG2-A16-CD81EGFP cells = conditions: for Average HepG2 3 µM response( %): averaged response (percent); for HepG2 1uM growth rep1 / HepG2 1uM growth rep2: HepG2, 1 µM compound treatment (10 mM stocks); for HepG2 1uM growth rep1 / HepG2 3uM growth rep1: replicate 1, normalized; for HepG2 1uM growth rep1 / HepG2 1uM growth rep2 / HepG2 3uM growth rep1 / HepG2 3uM growth rep2: average of 2 wells; for HepG2 1uM growth rep2 / HepG2 3uM growth rep2: replicate 2, normalized; for HepG2 3uM growth rep1 / HepG2 3uM growth rep2: HepG2, 3 µM compound treatment (10 mM stocks)
[2] = test system: Plasmodium falciparum Dd2 asexual blood stage parasites; experiment: microbe, parasite or virus in culture; parameters: species or system Plasmodium falciparum Dd2 in human erythrocytes; single determination (one 11-point concentration-response curve); conditions: Plasmodium falciparum, DD2, Erythrocyte, 72 h; read-out: AC50
in vitro = conditions: human, HepG2-A16-CD81EGFP cells, uninfected
[3] = HepG2, the header list (r10) describes it as the 1 µM dose
[4] = P. berghei liver stage, 1 µM compound treatment (10 mM stocks), replicate 1, normalized
[5] = P. berghei liver stage, 1 µM compound treatment (10 mM stocks), replicate 2, normalized
[6] = P. berghei liver stage, 3 µM compound treatment (10 mM stocks), replicate 1, normalized
[7] = P. berghei liver stage, 3 µM compound treatment (10 mM stocks), replicate 2, normalized
[8] = Plasmodium berghei, P. berghei liver stage, 1 µM compound treatment (10 mM stocks), replicate 1, normalized, read-out: PbLuc 1uM growth rep1
[9] = Plasmodium berghei, P. berghei liver stage, 1 µM compound treatment (10 mM stocks), replicate 2, normalized, read-out: PbLuc 1uM growth rep2
[10] = Plasmodium berghei, P. berghei liver stage, 3 µM compound treatment (10 mM stocks), replicate 1, normalized, read-out: PbLuc 3uM growth rep1
[11] = Plasmodium berghei, P. berghei liver stage, 3 µM compound treatment (10 mM stocks), replicate 2, normalized, read-out: PbLuc 3uM growth rep2
[12] = Plasmodium berghei, Method 1, Hill fit, 50% of maximum activity response, read-out: AC50
[13] = Plasmodium berghei, Method 1, log10 of molar AC50 from Hill fit, read-out: Log AC50 (converted)

Structure (SMILES)	PbLuc 1uM growth rep1 [1, 4] [%]	PbLuc 1uM growth rep2 [1, 5] [%]	PbLuc 3uM growth rep1 [1, 6] [%]	PbLuc 3uM growth rep2 [1, 7] [%]	HepG2 1uM growth rep1 (HepG2-A16-CD81EGFP cells) [%]	HepG2 1uM growth rep2 (HepG2-A16-CD81EGFP cells) [%]	HepG2 3uM growth rep1 (HepG2-A16-CD81EGFP cells) [%]	HepG2 3uM growth rep2 (HepG2-A16-CD81EGFP cells) [%]	also measured
COc1cc(OC)c(OC)cc1CN1CCc2nc(N(C)C)[nH]c(=O)c2CC1 [NCGC00440589]	–	–	–	–	–	–	–	–	Average P. berghei 3 µM response( %) ([1]; P. berghei liver stage): 112%; Average P. berghei 1 µM response (%) ([1]; P. berghei liver stage): 99%; Average HepG2 3 µM response( %) (HepG2-A16-CD81EGFP cells; HepG2, 3 µM dose): 100%; Average HepG2 3 µM response( %) (HepG2-A16-CD81EGFP cells; [3]): 102%
O=C(CCCCCCC(=O)Nc1ccccc1)NO [NCGC00168085-22]	–	–	–	–	–	–	–	–	Pb-Luc signal, 1 uM, repeat 1 ([1]; nominal 1 uM (10 mM stock), […] for 15 mM, 1.2 uM for 12 mM, 2 uM for 20 mM stock, average of 2 wells, 1536-well plate, repeat 1): 18.69%; Pb-Luc signal, 1 uM, repeat 2 ([1]; nominal 1 uM (10 mM stock), […] for 15 mM, 1.2 uM for 12 mM, 2 uM for 20 mM stock, average of 2 wells, 1536-well plate, repeat 2): 22.42%; Pb-Luc signal, 1 uM, repeat 3 ([1]; nominal 1 uM (10 mM stock), […] for 15 mM, 1.2 uM for 12 mM, 2 uM for 20 mM stock, average of 2 wells, 1536-well plate, repeat 3): 16.08%; Pb-Luc signal, 3 uM, repeat 1 ([1]; nominal 3 uM (10 mM stock), 4.5 uM for 15 mM, 3.6 uM for 12 mM, 6 uM for 20 mM stock, average of 2 wells, 1536-well plate, repeat 1): 2.01%; Pb-Luc signal, 3 uM, repeat 2 ([1]; nominal 3 uM (10 mM stock), 4.5 uM for 15 mM, 3.6 uM for 12 mM, 6 uM for 20 mM stock, average of 2 wells, 1536-well plate, repeat 2): 4.89%; Pb-Luc signal, 3 uM, repeat 3 ([1]; nominal 3 uM (10 mM stock), 4.5 uM for 15 mM, 3.6 uM for 12 mM, 6 uM for 20 mM stock, average of 2 wells, 1536-well plate, repeat 3): 2.03%; HepG2 viability signal, 1 uM, repeat 1 (HepG2-A16-CD81EGFP cells): 84.33%; HepG2 viability signal, 1 uM, repeat 2 (HepG2-A16-CD81EGFP cells): 78.31%; HepG2 viability signal, 3 uM, repeat 1 (HepG2-A16-CD81EGFP cells): 48.31%; HepG2 viability signal, 3 uM, repeat 2 (HepG2-A16-CD81EGFP cells): 48.65%
O=C1N(c2ccccc2C(F)(F)F)OC1(Cc1ccccc1)c1ccccc1 (stereo not drawn) [MLS002206595-01]	103	105	93	118	104	93	82	88	–
Br.N=c1n(CCN2CCCCC2)c2ccccc2n1CC(=O)c1ccc(Cl)c(Cl)c1 [MLS001042209-01]	90	95	75	102	87	90	85	90	–
Cc1ccc(Nc2cc(C)c3ccc(O)cc3n2)cc1C.Cl [MLS000674791-01]	115	107	69	101	98	92	89	95	–
CC(C)N(Cc1ccccc1)C(=O)CN1C(=O)COc2ccc(S(=O)(=O)N3CCCCCC3)cc21 [MLS001124552-01]	121	115	113	144	91	91	88	90	–
Cc1cc(C)n(Cc2ccc(C(=O)N3CCC(c4noc(-c5cccnc5)n4)C3)o2)n1 (stereo not drawn) [NCGC00441856]	–	–	–	–	–	–	–	–	Average P. berghei 3 µM response( %) ([1]; P. berghei liver stage): 100%; Average P. berghei 1 µM response (%) ([1]; P. berghei liver stage): 107%; Average HepG2 3 µM response( %) (HepG2-A16-CD81EGFP cells; HepG2, 3 µM dose): 104%; Average HepG2 3 µM response( %) (HepG2-A16-CD81EGFP cells; [3]): 103%
Cc1ccc(-c2cc(C(=O)Nc3ccc(S(=O)(=O)N4CC(C)OC(C)C4)cc3)[nH]n2)c(O)c1 (stereo not drawn) [MLS000779230-01]	151	112	73	94	106	100	84	94	–
Oc1ccccc1Nc1nc(NCc2ccccc2)c2ccccc2n1 [MLS000693415-01]	–	–	–	–	89	90	92	90	activity at 1 µM [1, 8]: 72%; activity at 1 µM [1, 9]: 80%; activity at 3 µM [1, 10]: 65%; activity at 3 µM [1, 11]: 75%
CCSc1nc2sc3c(c2c(=O)n1-c1ccccc1)CCN(C(C)C)C3 [MLS001173590-01]	97	84	60	65	104	95	87	98	–
COc1ccccc1[C@@]1(C)ON(c2ccccc2C(F)(F)F)C1=O [MLS002206613-01]	129	87	95	109	103	96	83	94	–
Cc1ccc(Nc2cc(C)nc(NCc3ccccc3)n2)cc1 [MLS000574704-01]	–	–	–	–	83	84	81	80	activity at 1 µM [1, 8]: 61%; activity at 1 µM [1, 9]: 54%; activity at 3 µM [1, 10]: 31%; activity at 3 µM [1, 11]: 43%
Cc1ccc(NC2=C/C(=N/S(=O)(=O)c3cccs3)c3ccccc3C2=O)cc1C [MLS000585841-01]	82	86	57	72	102	96	77	86	–
CC(=O)OC[C@]12CCC(C)=C[C@H]1O[C@@H]1[C@H](O)[C@@H](OC(C)=O)[C@@]2(C)[C@]12CO2 [MLS000863617-01]	–	–	–	–	–	–	–	–	Pb-Luc (P. berghei liver stage luciferase signal), % of control, repeat 1 [1]: 4.68% and -0.33%; Pb-Luc (P. berghei liver stage luciferase signal), % of control, repeat 2 [1]: 4.34% and -1.04%; Pb-Luc (P. berghei liver stage luciferase signal), % of control, repeat 3 [1]: -2.60% and 1.77%; HepG2 viability, % of control, column 14 (HepG2-A16-CD81EGFP cells): 5.74%; HepG2 viability, % of control, column 15 (HepG2-A16-CD81EGFP cells): 8.75%; HepG2 viability, % of control, column 16 (HepG2-A16-CD81EGFP cells): 5.74%; HepG2 viability, % of control, column 17 (HepG2-A16-CD81EGFP cells): 8.75%
Cc1ccc(Oc2ccc(NC(=O)c3ccco3)cc2)cc1 [MLS000111237-01]	–	–	–	–	–	–	–	–	Max Resp (signal direction of the dose response) ([1]; Method 1): Decrease; AC50 ([1]; Method 1, Hill fit, 50% of maximum activity response, read-out: AC50): 158 nM; Log AC50 (M) ([1]; Method 1, log10 of molar AC50 from Hill fit): -6.800 M; AC50 [1, 12]: 100 nM; AC50 [1, 13]: 100 nM; AC50 [2]: 10600 nM; viability at 66 h (in vitro): 95.1%
COc1cc2nc(Nc3ccc(C)c(Cl)c3)nc(N)c2cc1OC [MLS001199666-01]	–	–	–	–	–	–	–	–	activity at 1 µM ([1]; Plasmodium berghei, 1 uM (compounds provided at 10 mM), column 11, read-out: Pb-Luc (P. berghei liver stage), % of control, lower concentration, first repeat): 99%; activity at 1 µM ([1]; Plasmodium berghei, 1 uM (compounds provided at 10 mM), column 12, read-out: Pb-Luc (P. berghei liver stage), % of control, lower concentration, second repeat): 121%; activity at 3 µM ([1]; Plasmodium berghei, 3 uM (compounds provided at 10 mM), column 8, read-out: Pb-Luc (P. berghei liver stage), % of control, higher concentration, first repeat): 97%; activity at 3 µM ([1]; Plasmodium berghei, 3 uM (compounds provided at 10 mM), column 9, read-out: Pb-Luc (P. berghei liver stage), % of control, higher concentration, second repeat): 111%; AC50 [2]: 2110 nM; viability at 48 h, 1 µM (in vitro): 109%; viability at 48 h, 3 µM (in vitro): 100%
C=C(C)CSc1nc2sc3c(c2c(=O)n1-c1ccc(C)cc1)CCN(C)C3 [MLS001173676-01]	91	84	44	74	102	92	84	90	–
C=C(C)COc1ccc(-c2n[nH]cc2-c2ccc(OC)c(OC)c2)c(O)c1 [MLS000084580-01]	–	–	–	–	–	–	–	–	Max Resp (signal direction of the dose response) ([1]; Method 1): Decrease; AC50 [1, 12]: 501 nM; AC50 [1, 13]: 501 nM; AC50 [2]: 6680 nM; viability at 66 h (in vitro): 36%
